What was measured:
[1] = test system: CD4+ T cells from tumor-draining LN of TS/A-LACK tumor-bearing 16.2β mice; assay: IL-7-driven accumulation of fast-proliferating memory CD4+ T cells with inhibitors; assay type: cell-based; settings: IL-7-driven cultures, 7 days
From the text: FIG. 11. Intermediate memory CD4^+ T cells accumulate in the presence of IL-7 in a cell-density dependent, CsA-sensitive manner. Cells derived from the axillary, brachial and inguinal LN of naïve (A, B) and TS/A-LACK tumor-bearing (C-E) 16.20 mice were labeled with CFSE and respectively cultured for 7 days in plain medium, in the presence of LACK peptide (Ag) (A, B) or IL-7 (C-E) in the absence (nil) or in the presence of the indicated inhibitors. At the end of the culture the cells were stimulated for 5 h with L/28 aAPCs, and intracellular cytokine release was determined. A-D) Histograms show the CFSE dilution profile of equivalent numbers of (7×10^4) CD4^+ T cells. In A and C the thin lines reflect the CFSE profile of CD4+ T cells cultured in plain medium, while the thick lines depict the CFSE profile of CD4+ T cells cultured in Ag or IL-7, respectively. […]
(§1) 5 μm polystyrene sulfate latex beads (Interfacial Dynamics) were coated with I-A^d/LACK dimers (20 μg/ml) and anti-CD28 mAb (37.51; 2 μg/ml) (LACK aAPC) or with anti-CD28 mAb only (control aAPC). Coating of the proteins was monitored by flow cytometry analysis. […] The total number of Ag-specific IL-2^+/IFN-γ^+ T cells was determined by multiplying the percentage by the total number of Trypan Blue-negative LN cells.

[2] = test system: naïve CD4+ T cells of 16.2β mice stimulated with LACK-pulsed APC; assay: Ag-driven proliferation of naive T cells with inhibitors (CFSE); assay type: cell-based; settings: 7 days
From the text: FIG. 11. Intermediate memory CD4^+ T cells accumulate in the presence of IL-7 in a cell-density dependent, CsA-sensitive manner. Cells derived from the axillary, brachial and inguinal LN of naïve (A, B) and TS/A-LACK tumor-bearing (C-E) 16.20 mice were labeled with CFSE and respectively cultured for 7 days in plain medium, in the presence of LACK peptide (Ag) (A, B) or IL-7 (C-E) in the absence (nil) or in the presence of the indicated inhibitors. At the end of the culture the cells were stimulated for 5 h with L/28 aAPCs, and intracellular cytokine release was determined. A-D) Histograms show the CFSE dilution profile of equivalent numbers of (7×10^4) CD4^+ T cells. In A and C the thin lines reflect the CFSE profile of CD4+ T cells cultured in plain medium, while the thick lines depict the CFSE profile of CD4+ T cells cultured in Ag or IL-7, respectively. In B and D, thin line: cells cultured in the absence of the inhibitor, thick line: cells cultured in the presence of the inhibitor. E) Dot plots are shown after gating on viable CD4^+ T cells. Percentages indicate the frequency of LACK-specific cytokine secreting cells.
Twenty days after tumor cell injection mice were sacrificed and the axillary, brachial and inguinal peripheral lymph nodes (LN) draining and distal (non draining LN) to the site of tumor growth were recovered. […]

[3] = test system: CD4+ T cells from TS/A-LACK tumor draining LN; assay: Bcl-2 expression in CFSE-labeled LN cultures maintained in cytokines; assay type: cell-based, mice; settings: 7 days culture with the cytokine alone
From the text: (§2) FIG. 5. IL-7 and IL-2 favor T cell survival and the optimal expression of Bcl-2. Cells from TS/A-LACK tumor draining LN were labeled with the CFSE vital dye and cultured in the absence (−) or in the presence of IL-7, IL-2, IL-15 and IL-6 alone. After 7 days, cells were recovered and stained with anti-CD4 mAb and TO-PRO-3 (A) and with anti-Bcl-2 mAb (B, C). A) representative dot plots of total CD4^+ cells are shown. The frequencies of total CD4^+ TOPRO-3^+ (brackets) and of CFSE dim, TO-PRO-3″ cells (bold) are reported. B-C) events are shown after physical gating on viable CD4^+ T lymphocytes. C) thin line: isotype control; thin lines-shaded profile: anti-Bcl-2 Ab, medium cultured cells; thick lines: anti-Bcl-2 Ab, cytokine-cultured cells. The experiment is representative of 2 independent determinations.
FIG. 6. Phenotype and subset representation of lymphocytes maintained in IL-7 and IL-2. CFSE-labeled TS/A-LACK-tumor-draining LN cultures were maintained for a week in the presence of IL-7 or IL-2. Thereafter the cells were stained with anti CD4, CD44, CD25, CD127, and CD132 mAbs. A) representative dot plots report the expression levels of CD44, CD62L, CD25, CD127, and CD132 of viable CD4+. B) overlay of CD4^+, CFSE dim cells derived from IL-7 (thin lines) and IL-2 (thick lines) cultures in the absence of Ag-stimulation are shown. […]

[4] = test system: CD4+ T cells from TS/A-LACK tumor draining LN; assay: TO-PRO-3 viability of CFSE-labeled LN cultures maintained in cytokines; assay type: cell-based, mice; settings: total CD4+ cells, after a week in culture with the cytokine alone
From the text: as §2
(§3) Twenty days after tumor cell injection mice were sacrificed and the axillary, brachial and inguinal peripheral lymph nodes (LN) draining and distal (non draining LN) to the site of tumor growth were recovered. In the experiments of dendritic cell (DC) vaccination, mice were sacrificed fourteen days after DC administration and the axillary, brachial and inguinal LN were surgically excised. […]

[5] = test system: LACK-specific CD4+ T cells from LN of TS/A-LACK tumor-bearing BALB/c mice; assay: Ag-free short-term culture: I-Ad/LACK multimer staining, LACK-specific intracellular cytokine release, CFSE dilution; assay type: cell-based; settings: CFSE-labeled LN cells, 7 days, versus nil cultures
Description: Twenty days after tumor cell injection mice were sacrificed and the axillary, brachial and inguinal peripheral lymph nodes (LN) draining and distal (non draining LN) to the site of tumor growth were recovered. In the experiments of dendritic cell (DC) vaccination, mice were sacrificed fourteen days after DC administration and the axillary, brachial and inguinal LN were surgically excised. LN cells were cultured in 24 well plates at the density of 5×10^6 in complete medium in the absence or in the presence of recombinant murine IL-7 (200 ng/ml), IL-2 (20 ng/ml), IL-6 (45 ng/ml), or IL-15 (100 ng/ml) (all from Peprotech). In parallel cultures, cells were in vitro stimulated with the LACK-derived MHC II-restricted peptide (5 (25)) and 5×10^6 irradiated syngeneic splenocytes. As a control similar cultures were set up from syngeneic naïve mice. […]
as §1

[6] = test system: AH-1-specific CD8+ T cells; assay: Cytokine-driven culture of tumor-draining LN, AH-1-specific intracellular cytokine release; assay type: cell-based, BALB/c mice; settings: 7 days culture without Ag re-stimulation; undetectable ex vivo
Description: FIG. 10. IL-7 favors the accumulation of tumor-specific memory CD8^+ T cells otherwise undetectable ex vivo. A) BALB/c mice (5 mice per group) were challenged with 3×10^5 TS/A-LACK tumor cells and sacrificed 21 days later. Cells from pools of tumor draining LN (A-C) were analyzed ex vivo (A) and after 7 days in culture in the absence or in the presence of IL-7, IL-2, IL-15, IL-6 (B-C). A) Representative dot plots depict IL-2 and IFN-γ production by KJ1.26^− CD8^+ T cells. The frequency (A, B) and total number (C) of AH-1-specific cytokine-producing KJ1.26^− CD8^+ T cells is reported.
as §3, §1

Molecule | effect on IL-7-driven accumulation of fast-dividing CFSEdim CD4+ T cells and LACK-specific cells [1] | effect on Ag-driven T cell proliferation [2] | CD4+ T cells expressing optimal (high) Bcl-2 levels [3] [%] | TO-PRO-3+ dead cells [4] [%] | in vitro proliferation of CD4+ T cells and accumulation of LACK-specific CD4+ T cells [5] | frequency and total number of AH-1-specific CD8+ T cells [6]
CC(C)(C)n1nc(-c2ccc(Cl)cc2)c2c(N)ncnc21 [PP2] | only partially inhibited |  |  |  |  | 
Oc1ccc(-c2nc(-c3ccncc3)c(-c3ccc(F)cc3)[nH]2)cc1 [SB202190] | only partially inhibited | failed to inhibit |  |  |  | 
IL-6: recombinant IL-6 used as negative control cytokine |  |  | 10.5 | 73 | failed to support | not increased
